Molecular target: T1, ER-alpha (WT) (Homo sapiens, UniProt P03372)
T1 construct: endogenous in cells; host or cells: MCF7 breast cancer cells
T1 sequence (P03372 1-595): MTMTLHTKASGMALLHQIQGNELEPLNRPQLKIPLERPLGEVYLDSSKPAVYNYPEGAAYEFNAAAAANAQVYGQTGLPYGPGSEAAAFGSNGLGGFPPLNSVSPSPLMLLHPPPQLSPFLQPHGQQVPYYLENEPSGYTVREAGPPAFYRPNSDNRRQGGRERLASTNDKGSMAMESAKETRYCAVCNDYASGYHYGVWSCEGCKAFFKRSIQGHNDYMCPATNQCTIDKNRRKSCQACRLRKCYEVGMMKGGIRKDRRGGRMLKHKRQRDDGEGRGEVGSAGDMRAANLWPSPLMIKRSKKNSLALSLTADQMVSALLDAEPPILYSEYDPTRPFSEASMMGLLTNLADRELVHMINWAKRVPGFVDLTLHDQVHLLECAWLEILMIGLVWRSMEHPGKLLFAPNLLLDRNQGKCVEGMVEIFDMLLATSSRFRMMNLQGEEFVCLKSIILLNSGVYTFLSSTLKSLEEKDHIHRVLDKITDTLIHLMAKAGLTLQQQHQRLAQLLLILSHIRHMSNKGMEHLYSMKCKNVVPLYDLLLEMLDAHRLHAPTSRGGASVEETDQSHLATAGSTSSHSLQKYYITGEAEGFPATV
Assay: Breast Cancer Cell ERa High Content Fluorescence Imaging Degradation Assay (MCF7 HCS)
Format: cell-based
Conditions: MCF7 breast cancer cells, 4 hours incubation; for EC50: inflexion point of curve; for ERalpha (WT) MCF7 HCS (S inf): plateau of the maximal effect, DMSO and Fulvestrant define 0% and 100% changes in ESR1

SMILES	EC50 [nM]	ERalpha (WT) MCF7 HCS (S inf) [%]
C[C@H]1Cc2cc(O)ccc2[C@H](c2ccc(OCCN3CC(CF)C3)cc2)N1CC(F)(F)CO [Example 165, (1S,3S)-2-(2,2-Difluoro-3-hydroxypropyl)-1-(4-(2-(3-(fluoromethyl)azetidin-1-yl)ethoxy)phenyl)-3-methyl-1,2,3,4-tetrahydroisoquinolin-6-ol]	0.96	−101
C[C@@H]1Cc2cc(O)ccc2[C@@H](c2ccc(OCCN3CC(CF)C3)cc2)N1CC(F)(F)CO [Example 166, (1R,3R)-2-(2,2-Difluoro-3-hydroxypropyl)-1-(4-(2-(3-(fluoromethyl)azetidin-1-yl)ethoxy)phenyl)-3-methyl-1,2,3,4-tetrahydroisoquinolin-6-ol]	0.066	−105
C[C@@H]1Cc2cc(CO)ccc2[C@@H](c2ccc(OCCN3CC(CF)C3)cc2)N1CC(F)(F)CO [Example 172, 2,2-Difluoro-3-((1R,3R)-1-(4-(2-(3-(fluoromethyl)azetidin-1-yl)ethoxy)phenyl)-6-(hydroxymethyl)-3-methyl-3,4-dihydroisoquinolin-2(1H)-yl)propan-1-ol]	0.14	−99
CC(=O)c1ccc2c(c1)C[C@H](C)N(CC(F)(F)CO)[C@H]2c1ccc(OCCN2CC(CF)C2)cc1 [Example 176, 1-((1S,3S)-2-(2,2-Difluoro-3-hydroxypropyl)-1-(4-(2-(3-(fluoromethyl)azetidin-1-yl)ethoxy)phenyl)-3-methyl-1,2,3,4-tetrahydroisoquinolin-6-yl)ethanone]	> 100	
C[C@H](O)c1ccc2c(c1)C[C@@H](C)N(CC(F)(F)CO)[C@@H]2c1ccc(OCCN2CC(CF)C2)cc1 [Example 178, 2,2-Difluoro-3-((1R,3R)-1-(4-(2-(3-(Fluoromethyl)azetidin-1-yl)ethoxy)phenyl)-6-((S)-1-hydroxyethyl)-3-methyl-3,4-dihydroisoquinolin-2(1H)-yl)propan-1-ol]	> 100	
Oc1ccc2c(c1)CC[C@H](c1ccccc1)[C@@H]2c1ccc(OCCN2CCCC2)cc1 [lasofoxifene, (5R,6S)-6-phenyl-5-(4-(2-(pyrrolidin-1-yl)ethoxy)phenyl)-5,6,7,8-tetrahydronaphthalen-2-ol, reference compound]		−73.5
